Results: patent US5066580A, “Xanthene dyes that emit to the red of fluorescein” (priority 1990, dated 1991)
Like-named read-outs stand apart in the source and are kept apart here.

Assays:
[1] = Absorbance maximum and extinction coefficient; format: physicochemical; conditions: for red shift of absorbance maxima vs carboxy analogs: compared to carboxy analogs 1, 4 and 7
Experimental: First, the extinction coefficient of compounds 1-9 and 14 was determined. Stock solutions (5×10^-3 M) of each dye were made by dissolving the dye in two equivalents of 0.1 N NaOH and making up the volume with carbonate/bicarbonate buffer (0.16, 0.34 M, pH 9.5). The solution was diluted ([…]) in additional buffer (final pH 9.5-10) and the absorbance spectrum measured. A stock solution (1.2×10^-3 M) of Vita Blue was prepared in DMSO, diluted into citrate buffer (0.1 M, pH 5 2) to give a final concentration of 1.6×10^-5 M and the absorbance spectrum measured. A stock solution (8.2×10^-3 M) of VBDB was prepared in DMSO and diluted into pyrophosphate buffer (0.1 M, pH 7.2) to give a final concentration of 8.1×10^-5 M and the absorbance spectrum measured on a Beckman model DU-6UV visible spectrophotometer.
(§1) Finally, the spectral characteristics of compounds 1-9 was determined. The extinction coefficients and quantum yields or compounds 1-9 were determined at pH 9.5. The extinction coefficient and quantum yield of monoprotonated Vita Blue was also determined at pH 5.2. The extinction coefficient and the quantum yield of VBDB were determined at pH 7.2.

[2] = 470-670 nm (fluorescein), 500-700 nm (eosin), 600-800 nm (allophycocyanin); cited from earlier work
[3] = Fluorescence emission maximum and quantum yield; format: physicochemical; conditions: for red shift of emission maxima vs carboxy analogs: compared to carboxy analogs 1, 4 and 7; for effect of sulfo group on extinction coefficient and quantum yield: compared to carboxy analogs 1 and 7
Experimental: Second, quantum yields of compounds 1-9 and 14 were measured. Solutions (1×10^-6 M) of compounds 1-9 were prepared in carbonate/ bicarbonate buffer (pH 9.5). Fluorescence emission spectra were measured on a Perkin-Elmer MPF-2A fluorescence spectrophotometer in 3-mL disposable plastic cuvettes. The excitation wavelength was set 30 nm to the red of the maximum excitation wavelength and the emission spectra measured. The area under the emission spectrum was measured (F). The quantum yield (.PHI.) was determined using the following equation, F-kIo .PHI.εcb, where F is the fluorescence, k is a fluorimeter constant, Io is the light intensity at the exciting wavelength, ε is the extinction coefficient at the exciting wavelength, c is the concentration of the dye, and b is the pathlength of the cuvette. The value of k was determined for three different emission wavelength regions by using literature values of .PHI. and measuring the fluorescence of fluorescein (470-670 nm, .PHI.=0.92), eosin (500-700 nm, .PHI.=0.19) and allophycocyanin (Applied BioSystems, 600-800 nm, .PHI.=0.68). The value of Io was determined from a table that was generated by scanning the range of exciting wavelengths on the fluorescence spectrophotometer with the emission monochrometer open; a piece of white paper was placed in the sample holder to reflect the exciting light. The concentration of the dyes were 0.6-1.0 uM; this value in each case was below the concentration ([…]) required in order for the equation to be valid.
as §1

[4] = cited from earlier work
[5] = Fluorescence emission spectra of Vita Blue at varying pH; format: physicochemical
Experimental: Fluorescence emission spectra of Vita Blue also was determined. To each of five plastic cuvettes (3 mL) were added one of the following buffered solutions (0.1 M): citrate buffer (pH 4.21), pyrophosphate buffer at three pH values (6.22, 7.21, 9.05), and EPPS buffer (pH 8.37). Vita Blue solution (5 uL, 1.25×10^-3 M) was added, and the fluorescence emission spectra from 450 to 650 nm was measured. The excitation wavelength was 540 nm.

[6] = Absorbance titration of Vita Blue; format: physicochemical
Experimental: Absorbance titration of Vita Blue then was measured. To a plastic cuvette (3 mL) was added the following solutions: citrate buffer (0.1 mL, 0.1 M, pH 4.2), pyrophosphate buffer (0.1 mL, 0.1 M, pH 6.2), EPPS buffer (0.1 mL, 0.1 M, pH 8.4), water (2.6 mL), HCl solution (5 uL, 6 N) and Vita Blue solution (8 or 40 uL, […]). The final concentration of Vita Blue was 3.4×10^-6 or 1.7×10^-5 M. The initial pH was approximately 3. Aliquots of NaOH solution were added (1-3 uL, 4 N) and the pH and the absorbance spectrum from 700 to 400 nm measured.

human white blood cells = assay: Staining of lysed whole blood, fluorescence by flow cytometry; format: cell-based; conditions: 1 uM dye
Experimental: After characterizing the various xanthene dyes prepared in accordance with this invention, one of the dyes (VBDB) was used to stain cells. The ability of VBDB to stain cells was compared with BCECF-AM, a membrane permeable esterase substrate (Molecular Probes) and fluorescein diacetate (FDA). […] After incubation, the tube was centrifuged. This procedure specifically lyses red blood cells leaving the white cells intact and viable. The supernatant was removed and the white blood cells which remained were washed twice and resuspended in blood cell diluent (1 mL, Diagnostic Technology, Inc.). The cell concentration and the percentage of dead cells were ascertained by counting the cells manually using a fluorescent microscope and a hemacytometer; acridine orange and ethidium bromide were used to stain live and dead cells respectively.
Four samples of approximately 1.7×10^6 cells then were placed in polystyrene tubes. To each tube was added one of the following solutions (1 mL): FDA (1 uM) BCECF-AM (1 uM), VBDB (0.8 uM), or VBDB (8.0 uM). The dye solutions were prepared by diluting a stock solution of each dye (1-8 mM in DMSO) into blood cell diluent. The tubes were kept at room temperature for 30 minutes. The samples were washed three times and resuspended in blood cell diluent (1 mL).
A bandpass 530/30 emission filter was used for both FDA and BCECF-AM, while a bandpass 660/20 emission filter was used for VBDB. Data from 10,000 events were acquired from each of these samples immediately after staining, one hour after staining, and two hours after staining.
Referring to FIG. 2, VBDB, BCECF-AM and FDA were compared as vital dyes by staining lysed whole blood and examining the fluorescence by flow cytometry. […] Four samples of cells were incubated with BCECF AM (1 uM), FDA (1 uM) and VBDB (0.8 uM, 8.0 uM). The cells were analyzed immediately after staining (t=0), after one hour (t=1) and after two hours (t=2).
The data in FIG. 2 also was used to quantitate the "live" cells and the "dead" cells. […] It was assumed the live cells were those cells which retained the dye (the right peak) and that dead cells were those cells whose membranes had become leaky (the left peak). By setting the gate to the immediate left of the main peak, the "dead" cells to the left of the gate were counted.

[7] = pH 5.2 (monoprotonated Vita Blue)

Compound | Abs Max ([1]; pH 9.5) [nm] | ε (extinction coefficient) ([1]; pH 9.5) [M⁻¹ cm⁻¹] | EM Max ([3]; pH 9.5) [nm] | Quantum Yield ([3]; pH 9.5, dianionic form) | other results
O=C(O)c1ccccc1-c1c2ccc(=O)cc-2oc2cc(O)ccc12 [Compound 1, fluorescein] | 491 | 80000 | 516 | 0.92 | quantum yield, literature value [2]: 0.92; Quantum Yield ([4]; background): 0.93; difference of pKa2 and pKa3 ([4]; fluorescein and related compounds): 2.3 units
O=c1ccc2c(-c3ccccc3S(=O)(=O)O)c3ccc(O)cc3oc-2c1 [Compound 2, Sulfonefluorescein] | 497 | 78000 | 517 | 0.92 | red shift of absorbance maxima vs carboxy analogs [1]: 6-14 nm; red shift of emission maxima vs carboxy analogs [3]: 1-5 nm; effect of sulfo group on extinction coefficient and quantum yield [3]: little effect
CN(C)c1ccc2c(-c3ccccc3C(=O)O)c3ccc(=O)cc-3oc2c1 [Compound 3, Rhodol] | 522 | 57000 | 545 | 0.20 | 
O=C(O)c1ccccc1-c1c2c3ccccc3c(=O)cc-2oc2cc(O)c3ccccc3c12 [Compound 4, 1,2,7,8 dibenzofluorescein] | 534 | 81000 | 565 | 0.24 | 
O=C(O)c1ccccc1-c1c2c3ccccc3c(=O)c(Br)c-2oc2c(Br)c(O)c3ccccc3c12 [Compound 5, 1,2,7,8-Dibenzo-4.5-dibromofluorescein] | 549 | 24000 | 581 | 0.05 | excitation maxima compared to parent dyes [1]: at longer wavelengths; extinction coefficient and quantum yield compared to parent dyes [3]: lower than the parent dyes
O=c1cc2oc3cc(O)c4ccccc4c3c(-c3ccccc3S(=O)(=O)O)c-2c2ccccc12 [Compound 6, 1,2,7,8-Dibenzosulfonefluorescein] | 541 | 81000 | 567 | 0.48 | red shift of absorbance maxima vs carboxy analogs [1]: 6-14 nm; red shift of emission maxima vs carboxy analogs [3]: 1-5 nm; quantum yield vs carboxy analog ([3]; compared to compound 4): twice the quantum yield
O=C(O)c1ccccc1-c1c2ccc3cc(O)ccc3c2oc2c1ccc1cc(=O)ccc12 [Compound 7, naphthofluorescein] | 595 | 44000 | 660 | 0.14 | 
O=C(O)c1ccccc1-c1c2ccc3c(Br)c(O)ccc3c2oc2c1ccc1c(Br)c(=O)ccc12 [Compound 8, 4,10 Dibromonaphthofluorescein] | 605 | 32000 | 682 | 0.05 | 
O=c1ccc2c(ccc3c(-c4ccccc4S(=O)(=O)O)c4ccc5cc(O)ccc5c4oc32)c1 [Compound 9] | 609 | 36000 | 665 | 0.15 | isobestic point, emission spectra ([5]; excitation 540 nm, varying pH): 630 nm; dual fluorescence ([5]; mono- and diprotonated forms): showed dual fluorescence; excitation maxima compared to parent dyes [1]: at longer wavelengths; red shift of absorbance maxima vs carboxy analogs [1]: 6-14 nm; Abs Max [1, 7]: 524 nm; ε (extinction coefficient) [1, 7]: 13000 M⁻¹ cm⁻¹; extinction coefficient and quantum yield compared to parent dyes [3]: lower than the parent dyes; separation of emission maxima of monoanionic and dianionic forms [3]: 100 nm; red shift of emission maxima vs carboxy analogs [3]: 1-5 nm; effect of sulfo group on extinction coefficient and quantum yield [3]: little effect; EM Max [3, 7]: 570 nm; Quantum Yield ([3]; pH 5.2, monoanionic form): 0.04; absorbance peak maximum (apparent dimer) ([6]; 1.7×10^-5 M, pH 3.10, 4.06 and 6.45): 600 nm; isobestic point, absorbance titration ([6]; 3.4×10^-6 M): approximately 540 nm
CC(=O)Oc1ccc2c(c1)Oc1cc(OC(C)=O)ccc1C21OC(=O)c2ccccc21 [FDA, fluorescein diacetate, reference compound] |  |  |  |  | retention of initial fluorescence by stained cells over time (human white blood cells): did not retain their initial fluorescence over time
O=C1OC2(c3ccccc31)c1cc(Br)c(O)c(Br)c1Oc1c2cc(Br)c(O)c1Br [eosin] |  |  |  |  | quantum yield, literature value [2]: 0.19
allophycocyanin |  |  |  |  | quantum yield, literature value [2]: 0.68
